Source: ChEMBL document CHEMBL5584290, “Novel flexible biphenyl PfDHFR inhibitors with improved antimalarial activity” (RSC Med Chem, 2024)

Columns and labels:
[1] = Inhibition of Plasmodium falciparum DHFR N51I/C59R/S108N/I164L quadruple mutant
in vitro [2] = details: human, liver microsomes
Description: Intrinsic clearance in human liver microsomes incubated up to 60 mins in presence of NADPH by LC-MS/MS analysis

Plasmodium falciparum [3] = experiment: Antimalarial activity against PYR-resistant Plasmodium falciparum V1/S expressing DHFR N51I/C59R/S108N/I164L quadruple mutant by [3H]-hypoxanthine incorporation assay
Plasmodium falciparum [4] = experiment: Antimalarial activity against PYR-sensitive Plasmodium falciparum TM4/8.2 expressing wild type DHFR by [3H]-hypoxanthine incorporation assay; details: TM4/8.2, 3 h
[5] = Cytotoxicity against African green monkey Vero cells assessed as reduction in cell viability
in vitro [6] = details: rat, liver microsomes
Description: Intrinsic clearance in rat liver microsomes incubated up to 60 mins in presence of NADPH by LC-MS/MS analysis

[7] = Inhibition of wild type Plasmodium falciparum DHFR N51I/C59R/S108N/I164L quadruple mutant expressed in Escherichia coli BL21(DE3) pLysS cells assessed as inhibition constant using DHF as substrate measured for 80 sec in presence of NADPH
[8] = Selectivity index, ratio of IC50 for cytotoxicity against African green monkey Vero cells to IC50 for antimalarial activity against PYR-resistant Plasmodium falciparum V1/S expressing DHFR N51I/C59R/S108N/I164L quadruple mutant
Plasmodium falciparum [9] = experiment: Antimalarial activity against PYR-sensitive Plasmodium falciparum TM4/8.2 expressing wild type DHFR incubated for 24 hrs by [3H]-hypoxanthine incorporation assay
physchem = details: octanol/phosphate buffer, pH 7.4
Description: Lipophilicity, log D of the compound in octanol/phosphate buffer at pH 7.4 at 100 uM incubated for 2 hrs by HPLC analysis

[10] = Cytotoxicity against African green monkey Vero cells assessed as reduction in cell viability incubated for 72 hrs by sulforhodamine B assay
[11] = target: Bifunctional dihydrofolate reductase-thymidylate synthase (Plasmodium falciparum K1, UniProt P13922); experiment: Inhibition of wild type Plasmodium falciparum DHFR expressed in Escherichia coli BL21(DE3) pLysS cells assessed as inhibition constant using DHF as substrate measured for 80 sec in presence of NADPH
Plasmodium falciparum [12] = experiment: Antimalarial activity against PYR-resistant Plasmodium falciparum V1/S expressing DHFR N51I/C59R/S108N/I164L quadruple mutant infected in human erythrocytes incubated for 24 hrs by [3H]-hypoxanthine incorporation assay
Dihydrofolate reductase = target: T1, Dihydrofolate reductase (Homo sapiens, UniProt P00374); experiment: Inhibition of human DHFR expressed in Escherichia coli BL21(DE3) pLysS cells assessed as inhibition constant using DHF as substrate measured for 80 sec in presence of NADPH
T1 sequence (P00374 whole entry): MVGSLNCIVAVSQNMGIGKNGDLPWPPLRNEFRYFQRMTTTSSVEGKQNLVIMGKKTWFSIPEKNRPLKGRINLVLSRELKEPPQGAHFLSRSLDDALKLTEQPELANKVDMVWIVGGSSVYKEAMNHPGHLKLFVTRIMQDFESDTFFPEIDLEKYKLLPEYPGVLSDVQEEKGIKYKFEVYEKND

Chain of Bifunctional dihydrofolate reductase-thymidylate synthase (P13922 whole entry): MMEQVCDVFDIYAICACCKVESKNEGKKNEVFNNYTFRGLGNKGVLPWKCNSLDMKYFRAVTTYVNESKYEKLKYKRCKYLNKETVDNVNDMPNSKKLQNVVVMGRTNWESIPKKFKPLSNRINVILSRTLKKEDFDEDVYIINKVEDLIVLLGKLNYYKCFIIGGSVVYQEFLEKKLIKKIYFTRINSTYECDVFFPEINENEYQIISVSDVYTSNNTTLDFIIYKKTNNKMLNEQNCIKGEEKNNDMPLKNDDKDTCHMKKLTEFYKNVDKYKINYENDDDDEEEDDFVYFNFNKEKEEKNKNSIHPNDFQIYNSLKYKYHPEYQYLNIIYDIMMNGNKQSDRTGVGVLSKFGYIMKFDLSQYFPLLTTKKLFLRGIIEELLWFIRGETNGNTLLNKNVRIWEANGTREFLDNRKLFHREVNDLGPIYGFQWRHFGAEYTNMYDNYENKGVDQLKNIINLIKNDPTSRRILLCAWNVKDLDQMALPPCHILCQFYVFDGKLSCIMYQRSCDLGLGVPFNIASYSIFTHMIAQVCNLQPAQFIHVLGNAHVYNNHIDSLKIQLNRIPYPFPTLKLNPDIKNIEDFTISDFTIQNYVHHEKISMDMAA

SMILES	Ki [1]	microsomal CLint at 1 h (in vitro [2])	IC50 (Plasmodium falciparum [3])	IC50 (Plasmodium falciparum [4])	IC50 [5]	microsomal CLint at 1 h (in vitro [6])	Ki [7]	selectivity ratio [8]	IC50 (Plasmodium falciparum [9])	logD at 2 h, 100 µM (physchem)	IC50 at 72 h [10]	Ki [11]	IC50 (Plasmodium falciparum [12])	Ki (Dihydrofolate reductase)
CCc1nc(N)nc(N)c1OCCCOc1ccccc1CCC(=O)O	0.54 nM	< 3 µL/min/mg	56 nM	5 nM	> 100 µM	< 3 µL/min/mg								
CCOC(=O)c1ccc(-c2ccc(OCCCCOc3c(N)nc(N)nc3CC)cc2)cc1							0.99 nM	> 2.2	225 nM	> 2.5	> 50 µM	0.67 nM	22.8 µM	> 250 µM
